In patent US11160796B2, “Anti-androgens for the treatment of non-metastatic castration-resistant prostate cancer” (priority 2017, dated 2021):
“Also recorded” adds a separate entry of the source.

Columns and labels:
LNCaP/AR cells [1] = test: In vitro model of CRPC (AR-over-expressing prostate cancer cells); type: cell-based
[2] = Preclinical pharmacokinetic profile; type: in vivo
[3] = Phase III study (SPARTAN, Study 1): safety; type: in vivo, human
Excerpt: SPARTAN, a randomized (2:1), double-blind, placebo-controlled, multi-center clinical study, enrolled patients who had non-metastatic, castration-resistant prostate cancer (NM-CRPC).

[4] = Drug-drug interaction studies: effect of other medications on apalutamide; type: in vivo, human
[5] = Physicochemical description (ionization, solubility)
Excerpt: The Chemical name is (4-[7-(6-Cyano-5-trifluoromethylpyridin-3-yl)-8-oxo-6-thioxo-5,7-diazaspiro[3.4]oct-5-yl]-2-fluoro-N-methylbenzamide). Apalutamide is a white to slightly yellow powder.

BCRP/OATP1B1 = test: Drug-drug interaction study, cocktail approach: rosuvastatin; design: species or system human; conditions: in vivo
[6] = test system: organic cation transporter 2 (OCT2), organic anion transporter 3 (OAT3) and multidrug and toxin extrusions (MATEs); test: In vitro transporter inhibition: OCT2, OAT3, MATEs; type: in vitro ADME
[7] = Bacterial reverse mutation (Ames) assay
[8] = In vitro chromosome aberration test; type: cell-based
[9] = test system: BCRP, OATP1B1, and OATP1B3; conditions: not told
LNCaP/AR cells [10] = conditions: literature; cited from earlier work
[11] = test system: castration-resistant LNCaP/AR-Luc xenograft model; conditions: non-castrate hormone-sensitive and bicalutamide-resistant models (Clegg et al.); cited from earlier work
Plasma protein binding = conditions: plasma
CYP1A2 and CYP2D6 = test: In vitro effect on CYP1A2 and CYP2D6; conditions: therapeutically relevant concentrations
CYP2B6 and CYP2C8 = test: In vitro CYP inhibition: CYP2B6 and CYP2C8
[12] = Clinical pharmacokinetics (population PK analysis); conditions: for dose dependence of exposure (Cmax and AUC): repeat once-daily dosing, 30 to 480 mg
[13] = Single oral administration of 14C-labeled apalutamide 240 mg (metabolite profile, excretion)

With `CNC(=O)c1ccc(N2C(=S)N(c3cnc(C#N)c(C(F)(F)F)c3)C(=O)C23CCC3)cc1F` [apalutamide, 4-[7-(6-cyano-5-trifluoromethylpyridin-3-yl)-8-oxo-6-thioxo-5,7-diazaspiro[3.4]oct-5-yl]-2-fluoro-N-methylbenzamide] the “agonist properties in an in vitro model of CRPC” value (LNCaP/AR cells [1]; LNCaP/AR cells) was “no significant agonist properties”, the “Gene transcription of the androgen-driven genes, PSA and TMPRSS2” value (LNCaP/AR cells [1]; in vitro) was “inhibited” and the clearance ([2]; preclinical) was “low clearance”. The volume of distribution ([2]; preclinical) was “moderate volume of distribution”, the bioavailability ([2]; when dosed with a lipid-based formulation) was “high bioavailability” and the Arthralgia ([3]; All Grades) was 15.9%. The Fall ([3]; All Grades) was 15.6%, the “Fracture (grouped term)” value ([3]; All Grades) was 11.7% and the Hypercholesterolemia ([3]; All Grades) was 6.1%. For the same compound, the Hypertriglyceridemia ([3]; All Grades) was 3.5%, the “Hypothyroidism (grouped term)” value ([3]; All Grades) was 8.1% and the Pruritus ([3]; All Grades) was 6.2%. The Seizure ([3]; All Grades) was 0.2%, the “Skin rash (grouped term)” value ([3]; All Grades) was 24% and the Weight decreased ([3]; All Grades) was 16.1%. The Fatigue ([3]; All Grades, N = 803) was 30.4%, the “Skin rash (grouped term)” value ([3]; All Grades, listed as Apalutamide) was 23.8% and the Arthralgia ([3]; Grade 3-4) was 0%. The Fall ([3]; Grade 3-4) was 1.7%, the Fatigue ([3]; Grade 3-4) was 0.9% and the “Fracture (grouped term)” value ([3]; Grade 3-4) was 2.7%. The Hypercholesterolemia ([3]; Grade 3-4) was 0%, the Hypertriglyceridemia ([3]; Grade 3-4) was 0.6% and the “Hypothyroidism (grouped term)” value ([3]; Grade 3-4) was 0%. For the same compound, the Pruritus ([3]; Grade 3-4) was 0.2%, the Seizure ([3]; Grade 3-4) was 0% and the “Skin rash (grouped term)” value ([3]; Grade 3-4) was 5.2%. The Weight decreased ([3]; Grade 3-4) was 1.1%, the “onset of skin rash, median” value ([3]; days of treatment) was 82 days and the “Grade 3 skin rashes (covering >30% body surface area)” value ([3]; in vivo) was 5.2%. The “Hypothyroidism in patients already receiving thyroid replacement therapy” value ([3]; in vivo) was 28%, the “Hypothyroidism in patients not receiving thyroid replacement therapy” value ([3]; in vivo) was 5.7% and the “discontinuations due to adverse events” value ([3]; in vivo) was 11%. For the same compound, the “dose interruption among patients with skin rash” value ([3]; in vivo) was 28%, the “dose reduction among patients with skin rash” value ([3]; in vivo) was 12% and the “dose reduction, reason "other"” value ([3]; in vivo) was 9.7%. The “dose reduction, reason adverse event” value ([3]; in vivo) was 11%, the “patients whose skin rash resolved” value ([3]; in vivo) was 81% and the “recurrence of skin rash in patients who were re-challenged” value ([3]; in vivo) was “approximately half”. The “subjects receiving no dose modifications” value ([3]; in vivo) was 79%, the “subjects with 2 dose interruptions” value ([3]; in vivo) was 6.6% and the “subjects with dose interruptions due to TEAEs” value ([3]; in vivo) was 34%. For the same compound, the “subjects with dose reductions” value ([3]; in vivo) was 21%, the “subjects with one dose interruption” value ([3]; in vivo) was 22% and the “subjects with one dose reduction” value ([3]; in vivo) was 8.2%. The “subjects with two dose reductions” value ([3]; in vivo) was 13%, the “time to resolution of rash from onset, median” value ([3]; in vivo) was 60 days and the “treatment discontinuation among patients who experienced skin rash” value ([3]; in vivo) was 9%. The “increase in AUC of apalutamide” value ([4]; 240 mg single dose with gemfibrozil) was 68%, the “decrease in Cmax of apalutamide” value ([4]; 240 mg single dose with gemfibrozil (strong CYP2C8 inhibitor)) was 21% and the AUC of apalutamide ([4]; 240 mg single dose with itraconazole) was “similar”. For the same compound, the “decrease in Cmax of apalutamide” value ([4]; 240 mg single dose with itraconazole (strong CYP3A4 inhibitor)) was 22%, the solubility ([5]; aqueous media over a wide range of pH values) was “practically insoluble” and the ionization ([5]; relevant physiological pH condition) was “not ionizable”. The BCRP/OATP1B1 inducer clinically (BCRP/OATP1B1) was “weak and weak inducer”, the “impact on Cmax of rosuvastatin” value (BCRP/OATP1B1) was “no impact” and the “inhibition of OCT2, OAT3 and MATEs” value [6] was “cannot be excluded; also recorded: inhibit”. For the same compound, the “mutations in the bacterial reverse mutation (Ames) assay” value [7] was “did not induce mutations”, the “genotoxicity, in vitro chromosome aberration” value [8] was “not genotoxic” and the “genotoxicity, in vivo rat Comet assay” value (In vivo rat Comet assay) was “not genotoxic”. The “substrate for BCRP, OATP1B1, and OATP1B3” value [9] was “not BCRP, OATP1B1, and OATP1B3”, the “agonist activity in the context of AR overexpression” value (LNCaP/AR cells [10]) was “lacks the partial agonist activity” and the “tumor regression in human prostate cancer xenograft models” value [11] was “partial or complete tumor regression”. For the same compound, the fraction unbound (Plasma protein binding) was 0.04, the “effect on CYP1A2 and CYP2D6” value (CYP1A2 and CYP2D6) was “do not affect” and the “inhibition of CYP2B6 and CYP2C8” value (CYP2B6 and CYP2C8) was “moderate inhibitors”. The “time to steady state” value ([12]; 240 mg once daily) was 4 weeks, the CL/F ([12]; after single dosing) was 1.3 L/h and the CL/F ([12]; at steady-state after once-daily dosing) was 2.0 L/h. For the same compound, the “changes in Cmax and AUC with food” value ([12]; high-fat meal vs fasting, healthy subjects) was “no clinically relevant changes”, the Tmax ([12]; human, plasma, po) was 2 h and the bioavailability ([12]; human, plasma, po) was ~100%. For the same compound, the “differences in pharmacokinetics in specific populations” value ([12]; mild or moderate renal impairment, mild or moderate hepatic impairment, age 18 to 94 years, race) was “No clinically significant differences”, the “dose dependence of exposure (Cmax and AUC)” value [12] was “dose-proportional” and the “dose dependence of exposure (Cmax and AUC)” value ([12]; listed as Apalutamide) was “increased proportionally”. The “share of the total 14C-AUC in plasma” value ([13]; single oral 240 mg) was 45%, the “% of dose in feces as this compound” value ([13]; up to 70 days) was 1.5% and the “% of dose in urine as this compound” value ([13]; up to 70 days) was 1.2%. For the same compound, the “radioactivity recovered in feces” value ([13]; up to 70 days) was 24%, the “radioactivity recovered in urine” value ([13]; up to 70 days) was 65% and the radioactivity recovered ([13]; up to 70 days post-dose) was 89%.
